Source: publication PMC7985170, “Marine Peptide-N6NH2 and Its Derivative-GUON6NH2 Have Potent Antimicrobial Activity Against Intracellular Edwardsiella tarda in vitro and in vivo” (Frontiers in Microbiology, 2021)
In brackets after ≈: the same amount, converted by molar mass. Where a SMILES comes first, the peptide text is derived from it. Bridges are numbered along the chain shown (N, C = ends). The star is where a group is joined. Orn(α-tetramethylguanidino) = CN(C)C(=N[C@@H](CCCN)C(=O)*)N(C)C

Assays:
E. coli CVCC25922 = type: cell-based, Escherichia coli
Experimental: (§1) The antimicrobial activity of peptides was determined by the microbroth dilution method ([Zhang et al., 2014]). The bacterial strains were incubated in Mueller-Hinton (MH) medium at 28°C or 37°C overnight. Bacteria (1 × 10^5 CFU/mL) were added into 96-well plates, followed by the addition of serial dilutions of peptides (from 0.0625 to 128 μg/mL). The plates were incubated at 37°C for 18–24 h. The minimal inhibitory concentration (MIC) value was determined as the lowest peptide concentration at which no bacterial growth was observed.

E. coli CVCC1515 = type: cell-based, Escherichia coli
Experimental: as §1

S. aureus ATCC25923 = type: cell-based, Staphylococcus aureus
Experimental: as §1

S. aureus ATCC546 = type: cell-based, Staphylococcus aureus
Experimental: as §1

[1] = system: Staphylococcus hyicus 437-2; type: cell-based
Experimental: as §1

[2] = system: Salmonella pullorum CVCC1802; type: cell-based
Experimental: as §1

[3] = system: Salmonella typhimurium CVCC533; type: cell-based; settings: murium CVCC533
Experimental: as §1

Edwardsiella tarda = type: cell-based
Experimental: as §1

Escherichia coli CVCC195 = type: cell-based
Experimental: as §1

[4] = system: Staphylococcus aureus ATCC43300; type: cell-based
Experimental: as §1

murine erythrocytes = type: cell-based, mouse
Experimental: The hemolysis of peptides was evaluated by determining the amount of hemoglobin that was released from fresh mouse erythrocytes ([Flamm et al., 2019]). The blood cells were washed three times with 10 mM PBS (pH 7.4) and centrifuged for 10 min (1,500 rpm). Erythrocyte solution (8%, v/v) was mixed with peptide solutions (1:1) and incubated for 1 h at 37°C. The mixture was then centrifuged for 5 min (1,500 rpm), and the absorbance of supernatants was measured at 540 nm. Values of 0 and 100% hemolysis were determined in PBS and 0.1% triton X-100, respectively. The hemolysis of peptides was calculated using the following formula: Hemolysis (%) = [(Abs treated sample – Abs negative control)/(Abs positive control – Abs negative control)] × 100.

S. typhimurium ATCC14028 = type: cell-based, Salmonella typhimurium
Experimental: as §1

[5] = system: inner membrane of E. tarda; experiment: Inner membrane penetration, PI staining by flow cytometry; type: cell-based, Edwardsiella tarda; settings: 1× MIC, 5–30 min at 37°C, 1 × 10^8 CFU/mL
Experimental: Mid-log phase E. tarda cells (1 × 10^8 CFU/mL) were incubated with or without 1× MIC peptides solutions at 37°C for 5, 15, and 30 min, respectively. After washing twice with PBS, bacterial cells were then incubated with 50 μg/mL propidium iodide (PI) for 15 min and analyzed using a FACS Calibur Flow Cytometer (BD, United States) ([Stearns-Kurosawa et al., 2011]).

Gram-positive bacteria = experiment: Geometric mean of MICs and therapeutic index; type: cell-based; settings: for GM Gram-positive bacteria: geometric mean (GM) of MICs against Gram-positive bacteria; for TI Gram-positive bacteria: therapeutic index (TI), cell selectivity
Experimental: as §1
(§2) The geometric mean (GM) of MICs of peptides against Gram-negative and Gram-positive bacteria was calculated, and the result was shown in Table 3. […] For Gram-negative bacteria, the TI value of GUON6NH2 (53.33) was very close to N6NH2 (58.18), while for positive bacteria, the TI value of GUON6NH2 (12.8) was slightly higher than that of N6NH2 (12.31), indicating their huge therapeutic potential. For Gram-positive bacteria, DN6NH2 had the highest TI value and the best therapeutic potential.

[6] = system: Gram-negative and Gram-positive bacteria (ALL); experiment: Geometric mean of MICs and therapeutic index; type: cell-based; settings: for GM ALL: geometric mean (GM) of MICs, all strains; for TI ALL: therapeutic index (TI), cell selectivity
Experimental: as §1, §2

S. hyicus 15095 = type: cell-based, Staphylococcus hyicus
Experimental: as §1

E. tarda [7] = experiment: Mouse peritonitis model, survival; type: in vivo; settings: 1 μmoL/kg i.p. at 1 h postinfection, ICR mice, 5 days
Experimental: To establish a peritonitis mouse model, six-week-old female ICR mice (five mice/group) were intraperitoneally injected with E. tarda (1 × 10^9 CFU/mL, 0.5 mL). The infected mice were followed by the intraperitoneal injection of N6NH2, GUON6NH2 or norfloxacin (1 μmol/kg of body weight, 0.2 mL) at 1 h postinfection, respectively. Mice injected with only bacteria or PBS were used as negative or blank controls. The survival of mice was recorded daily for 5 days.

E. tarda [8] = experiment: Mouse peritonitis model, bacterial counts in peritoneal fluid; type: in vivo; settings: 1 μmol/kg i.p., peritoneal fluid cells 24 h after treatment
Experimental: The mice were intraperitoneally infected with E. tarda (1 × 10^9 CFU/mL, 0.5 mL) and then injected with N6NH2 and GUON6NH2 (1 μmol/kg) or PBS (the blank control) in the same way at 1 h after infection. The mice were then killed at 24 h after treatment, and peritoneal fluids were obtained by washing with 5 mL of ice-cold PBS. The total number of E. tarda in the fluids was determined before any further procedures. For intracellular bacteria quantification, the other fraction was centrifuged for 5 min at 4°C (1,000 rpm). The cells were collected, treated with 1,000 μg/mL gentamicin for 30 min at 37°C to kill extracellular bacteria, and washed with ice-cold PBS twice to remove extracellular gentamicin. Subsequently, the cells were lysed and the bacteria were counted as described above for the in vitro experiment ([Kim et al., 2011]).

S. pullorum CVCC1789 = type: cell-based, Salmonella pullorum
Experimental: as §1

RAW 264.7 macrophages = type: cell-based, mouse
Experimental: To quantify peptide uptake, RAW 264.7 macrophages were grown in 12-well plates (2.5 × 10^5 cells/mL, 750 μL/well) for 24 h. Then, the cells were treated with FITC-N6NH2 and FITC-GUON6NH2 (1, 5, 10, 25, and 50× MIC) for 18 h and washed with PBS. To avoid the influence of membrane-bound FITC-labeled peptides, the cells were incubated with 0.04% trypan blue in PBS for 15 min and the fluorescence intensity was analyzed using a FACS Calibur Flow Cytometer (BD, United States) ([Duchardt et al., 2009]).

Compound: CC(C)[C@@H]1NC(=O)CNC(=O)[C@H](CC(N)=O)NC(=O)[C@H](CCCNC(=N)N)NC(=O)[C@H](Cc2ccc(O)cc2)NC(=O)[C@H](C(C)C)NC(=O)[C@@H](NC(=O)[C@@H](NC(=O)[C@H](CC(N)=O)NC(=O)[C@H](Cc2c[nH]c3ccccc23)NC(=O)[C@H](C)NC(=O)[C@H](Cc2ccccc2)NC(=O)[C@H](CCCN)N=C(N(C)C)N(C)C)C(C)C)CSSC[C@@H](C(=O)N[C@@H](Cc2c[nH]cn2)C(=O)N[C@@H](CCCNC(=N)N)C(=O)N[C@@H](CCCNC(=N)N)C(=O)N[C@@H](C)C(=O)N[C@@H](CC(N)=O)C(N)=O)NC(=O)[C@H](C(C)C)NC(=O)[C@H](CCCNC(=N)N)NC1=O [GUON6NH2] ({Orn(α-tetramethylguanidino)}-FAWNVCVYRNGVRVCHRRAN-NH2; disulfide 6-15)
- MIC (E. coli CVCC25922): 4 µg/mL (≈ 1.52 µM)
- MIC (E. coli CVCC1515): 2 µg/mL (≈ 0.76 µM)
- MIC (S. aureus ATCC25923): 32 µg/mL (≈ 12.2 µM)
- MIC (S. aureus ATCC546): 16 µg/mL (≈ 6.08 µM)
- MIC [1]: 32 µg/mL (≈ 12.2 µM)
- MIC [2]: 4 µg/mL (≈ 1.52 µM)
- MIC [3]: 8 µg/mL (≈ 3.04 µM)
- MIC (Edwardsiella tarda): 8 µg/mL (≈ 3.04 µM)
- MIC (Escherichia coli CVCC195): 4 µg/mL (≈ 1.52 µM)
- MIC [4]: 16 µg/mL (≈ 6.08 µM)
- MHC (murine erythrocytes): >128 µg/mL
- cytotoxicity and hemolysis (murine erythrocytes; red cells of mouse, 1 h): < 1%
- MIC (S. typhimurium ATCC14028): 4 µg/mL (≈ 1.52 µM)
- penetration rate (PI-stained cells) [5]: 0.78–2.84%
- GM Gram-positive bacteria (Gram-positive bacteria): 20 µg/mL
- TI Gram-positive bacteria (Gram-positive bacteria): 12.8
- GM ALL [6]: 9.87 µg/mL
- TI ALL [6]: 25.94
- MIC (S. hyicus 15095): 4 µg/mL (≈ 1.52 µM)
- survival rate of mice (E. tarda [7]): 60%
- reduction of intracellular bacteria (E. tarda [8]): 1.97 Log10 CFU
- MIC (S. pullorum CVCC1789): 8 µg/mL (≈ 3.04 µM)
- percentages of florescent cells (RAW 264.7 macrophages): 16.1–86.5%

Compound: CC(C)[C@@H]1NC(=O)CNC(=O)[C@H](CC(N)=O)NC(=O)[C@H](CCCNC(=N)N)NC(=O)[C@H](Cc2ccc(O)cc2)NC(=O)[C@H](C(C)C)NC(=O)[C@@H](NC(=O)[C@@H](NC(=O)[C@H](CC(N)=O)NC(=O)[C@H](Cc2c[nH]c3ccccc23)NC(=O)[C@H](C)NC(=O)[C@H](Cc2ccccc2)NC(=O)CN)C(C)C)CSSC[C@@H](C(=O)N[C@@H](Cc2cnc[nH]2)C(=O)N[C@@H](CCCNC(=N)N)C(=O)N[C@@H](CCCNC(=N)N)C(=O)N[C@@H](C)C(=O)N[C@@H](CC(N)=O)C(N)=O)NC(=O)[C@H](C(C)C)NC(=O)[C@H](CCCNC(=N)N)NC1=O [N6NH2]
- MIC (E. coli CVCC25922): 4 µg/mL (≈ 1.62 µM)
- MIC (E. coli CVCC1515): 2 µg/mL (≈ 0.808 µM)
- MIC (S. aureus ATCC25923): 32 µg/mL (≈ 12.9 µM)
- MIC (S. aureus ATCC546): 16 µg/mL (≈ 6.46 µM)
- MIC [1]: 32 µg/mL (≈ 12.9 µM)
- MIC [2]: 4 µg/mL (≈ 1.62 µM)
- MIC [3]: 4 µg/mL (≈ 1.62 µM)
- MIC (Edwardsiella tarda): 8 µg/mL (≈ 3.23 µM)
- MIC (Escherichia coli CVCC195): 4 µg/mL (≈ 1.62 µM)
- MIC [4]: 16 µg/mL (≈ 6.46 µM)
- MHC (murine erythrocytes): >128 µg/mL
- MIC (S. typhimurium ATCC14028): 4 µg/mL (≈ 1.62 µM)
- penetration rate (PI-stained cells) [5]: 0.99–1.71%
- GM Gram-positive bacteria (Gram-positive bacteria): 20.8 µg/mL
- TI Gram-positive bacteria (Gram-positive bacteria): 12.31
- GM ALL [6]: 9.87 µg/mL
- TI ALL [6]: 25.94
- MIC (S. hyicus 15095): 8 µg/mL (≈ 3.23 µM)
- survival rate of mice (E. tarda [7]): 80%
- reduction of intracellular bacteria (E. tarda [8]): 1.54 Log10 CFU
- MIC (S. pullorum CVCC1789): 8 µg/mL (≈ 3.23 µM)
- percentages of florescent cells (RAW 264.7 macrophages): 27.6–79.8%
